Source: patent publication US11198673B2, “Therapeutic compounds and compositions” (eXIthera Pharmaceuticals, Inc., priority 2014, dated 2021)
In brackets after ≈: the same amount, converted by molar mass.

Columns and labels:
[1] = in vitro; conditions: both, human, microsomes, pH 7.4
Protocol: The following procedure was used to determine the stability of a test compound in pooled liver microsomes from human (mixed gender) in 96-well plate format. The test compound was quantified at five time points by HPLC-MS/MS analysis. The final microsomal protein concentration in the assay was 0.1 mg/mL. […] The test compound was pre-incubated with human liver microsomes in phosphate buffer (pH 7.4) for 5 min in a 37° C. shaking waterbath. The reaction was initiated by adding NADPH-generating system and incubated for 0, 15, 30, 45, and 60 minutes. The reaction was stopped by transferring the incubation mixture to acetonitrile/methanol. Samples were then mixed and centrifuged and the supernatants used for HPLC-MS/MS analysis. Peak areas corresponding to the test compound were recorded. The compound remaining was calculated by comparing the peak area at each time point to time zero.

[2] = β-Lactam stability in rat plasma; type: in vitro ADME; conditions: normal rat plasma, room temperature; read-out: Rat Plasma Stability (T1/2; min)
In short: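 Compounds incubated in normal rat plasma at room temperature, sampled into acetonitrile from 2 to 480 min. Supernatants analysed by HPLC-MS on C18, extracted ion chromatograms of parent and parent+18 (H2O adduct) integrated; T½ = ln(2)/k from single-phase exponential decay fit.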

[3] = molecular target: T1, Factor Xa (Homo sapiens, UniProt P00742); assay: Dose response assay for protease inhibitors: Factor Xa (FXIa fold selectivity); type: biochemical; conditions: fold selectivity for FXIa over Factor Xa
T1 construct: Factor Xa; 0.2 μM in 50% glycerol (9.2 μg/mL)
T1 sequence (P00742 235-488 limits assumed): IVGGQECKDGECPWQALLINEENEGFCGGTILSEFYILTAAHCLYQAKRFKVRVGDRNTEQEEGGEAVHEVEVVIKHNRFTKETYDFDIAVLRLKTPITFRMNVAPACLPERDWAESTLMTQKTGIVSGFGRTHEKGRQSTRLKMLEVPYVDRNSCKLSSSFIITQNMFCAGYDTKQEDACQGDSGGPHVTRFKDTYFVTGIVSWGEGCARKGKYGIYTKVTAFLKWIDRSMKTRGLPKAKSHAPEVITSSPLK
T1 sequence (P00742 41-179 partner limits assumed): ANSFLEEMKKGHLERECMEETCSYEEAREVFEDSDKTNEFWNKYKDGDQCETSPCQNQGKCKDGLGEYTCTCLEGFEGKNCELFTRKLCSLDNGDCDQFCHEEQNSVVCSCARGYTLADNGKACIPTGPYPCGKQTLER
Protocol: (§1) • Assay buffer: 20 mM Hepes, pH 7.4; 150 mM NaCl; 0.02% Tween 20 • Compounds: 10 mM stocks in DMSO • Substrate: 20 mM Glp-Pro-Arg-AMC, 25 mg/2.3 mL H2O (store at +4° C.) [Factor XIa, thrombin, and trypsin] • 20 mM Pro-Phe-Arg-AMC (Bachem I-1295), 25 mg/2.2 mL H2O (store at +4° C.) [Factor Xa] • Enzyme: Factor XIa; 0.25 μM in 50% glycerol (20 μg/mL) • Trypsin; 0.2 μM in 50% glycerol (4.8 μg/mL) • Thrombin; 0.2 μM in 50% glycerol (7.34 μg/mL) • Factor Xa; 0.2 μM in 50% glycerol (9.2 μg/mL) • These stocks are aliquoted ([…]) and stored at −20° C. Methods: • 1. Dilute the substrate to 100 μM in assay buffer (30 μL/6 mL). The enzyme is diluted to 0.5 nM just prior to use (12 μL/6 mL for Factor XIa; 15 μL/6 mL for all of the rest.) • 2. Pipette 50 μL of substrate into each well of the 96 well (12×8) microtiter plate. (Column 1 is used as the 100% activity control and receives no compound, and Column 12 is the blank and receives no enzyme.) Add an additional 46 μL to column 2. • 3. Pipette 4 μL of each compound into the appropriate well in column 2 of the plate (unknowns assayed in triplicate, standard assayed in duplicate). The final compound concentration will be 1/50th of the stock. • 4. Serially two-fold dilute the compound by mixing the sample in column 2, removing 50 μL to the next well (column 3), mix and remove to column 4, etc. until column 11. After mixing column 11, remove 50 μL and discard. • 5. Pipette 50 μL of buffer into column 12. Initiate the reaction by adding 50 μL of enzyme solution to each well of columns 1-11 as rapidly as possible. • 6. Read the plate in a spectrophotometer (SpectraMax) at 30° C., wherein each well is measured every 60 s for 30 min. For Factor Xa assays, each well is measured every 1 min for a total of 60 min. • 7. For Factor XIa assays, the compounds are assayed, in duplicate, at 3 different starting concentrations, 20, 2, and 0.2 μM; 1:10, 1:100, and 1:1000 dil'n of 10 mM stock. All data sets are combined for graphing and data fitting. • 8. Data can be used both for estimation of IC50 and for estimation of Kon.

[4] = molecular target: T2, human Factor XIa (Homo sapiens, UniProt P03951); assay: Factor XIa enzyme inhibition assay (IC50, purified enzyme); type: biochemical; conditions: purified enzyme 0.25 nM, substrate 50 μM; read-out: Potency hFXIa IC50
T2 construct: Enzyme: Factor XIa; 0.25 μM in 50% glycerol (20 μg/mL)
T2 sequence (P03951 388-625 limits assumed): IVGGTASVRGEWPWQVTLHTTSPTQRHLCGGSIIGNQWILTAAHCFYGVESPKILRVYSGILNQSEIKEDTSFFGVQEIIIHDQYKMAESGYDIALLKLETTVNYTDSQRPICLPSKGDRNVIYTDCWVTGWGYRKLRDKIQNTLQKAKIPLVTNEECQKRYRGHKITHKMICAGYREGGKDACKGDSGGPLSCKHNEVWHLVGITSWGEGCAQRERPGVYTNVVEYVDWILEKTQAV
T2 sequence (P03951 19-387 partner limits assumed): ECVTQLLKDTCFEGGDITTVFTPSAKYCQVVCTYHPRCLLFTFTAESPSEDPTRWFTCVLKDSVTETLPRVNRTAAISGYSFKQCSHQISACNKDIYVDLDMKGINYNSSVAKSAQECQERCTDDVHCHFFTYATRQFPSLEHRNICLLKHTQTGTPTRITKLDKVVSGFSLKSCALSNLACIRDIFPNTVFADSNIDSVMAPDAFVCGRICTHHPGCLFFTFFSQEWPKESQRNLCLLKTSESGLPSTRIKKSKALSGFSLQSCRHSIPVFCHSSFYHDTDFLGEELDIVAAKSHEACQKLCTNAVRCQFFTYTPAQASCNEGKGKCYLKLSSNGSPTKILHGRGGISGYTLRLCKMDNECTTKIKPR
In short: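 Fluorogenic Glp-Pro-Arg-AMC cleavage, 50 μM substrate, 0.25 nM enzyme, in 20 mM Hepes pH 7.4, 150 mM NaCl, 0.02% Tween 20. Serial two-fold compound dilutions from starting concentrations of 20, 2 and 0.2 μM. Read every minute for 30 min at 30° C; IC50 from a four-parameter fit of dose-response.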

[5] = molecular target: T3, Thrombin (Homo sapiens, UniProt P00734); assay: Dose response assay for protease inhibitors: thrombin (FXIa fold selectivity); type: biochemical; conditions: fold selectivity for FXIa over thrombin
T3 construct: Thrombin; 0.2 μM in 50% glycerol (7.34 μg/mL)
Protocol: as §1

[6] = in vitro; conditions: for fraction unbound at 4 h, 10 µM: both, human, plasma, pH 7.4
Protocol: The following procedure was used to determine the plasma protein binding of a test compound in pooled plasma from human (mixed gender) via equilibrium dialysis in a 96-well plate format. The dialysate compartment is loaded with phosphate-buffered saline (pH 7.4) and the sample side is loaded with plasma spiked with the test compound at a concentration of 10 μM. After loading, samples are covered and incubated for 4 hours at 37° C. After incubation, each compartment is sampled, diluted with acetonitrile/buffer and centrifuged. The supernatants are analyzed by HPLC-MS/MS. The amount measured in the plasma compartment includes both free and bound drug, while that on the buffer side represents free drug only; the differences are used to calculate the percentage plasma protein bound.

[7] = test system: Trypsin; assay: Dose response assay for protease inhibitors: trypsin (FXIa fold selectivity); type: biochemical; conditions: fold selectivity for FXIa over trypsin
Protocol: as §1

[8] = physchem; type: physicochemical; conditions: pH 7.4, aqueous buffer, kinetic from dmso stock
Protocol: The test compound was prepared at 200 μM in PBS from a 10 mM DMSO stock solution. The final DMSO concentration was 2%. The PBS buffer samples were mixed thoroughly followed by incubation at room temperature for 24 h. At the end of the incubation, the PBS buffer samples were centrifuged and supernatants analyzed by HPLC.

| Compound | half-life at 0.1 µM [1] [h] | half-life [2] [h] | FXIa Fold Selectivity FXa [3] | IC50 [4] [nM] | FXIa Fold Selectivity Thrombin [5] | fraction unbound at 4 h, 10 µM [6] | solubility at 4 h [8] [µM] | binding of reference compounds to human plasma proteins [6] | solubility at 24 h [8] [µM] | FXIa Fold Selectivity Trypsin [7] |
| --- | --- | --- | --- | --- | --- | --- | --- | --- | --- | --- |
| CC(C)C(=O)OCOC(=O)Nc1cc(C[C@H]2C(=O)N(C(=O)N[C@H](C)c3ccc4c(c3)OC(F)(F)O4)[C@@H]2C(=O)O)ccn1 [Example 100] | < 0.5 |  | G (“G” indicates 1-500) | 100 to 1000 | G (“G” indicates 1-500) | < 0.02 | > 100 |  |  | G (“G” indicates 1-500) |
| C[C@@H](NC(=O)N1C(=O)C(Cc2ccnc(Cl)c2)[C@H]1C(=O)O)c1ccc2c(c1)OC(F)(F)O2 (some centres unmarked) [Example 128] | > 1 | > 1.67 |  | > 1000 |  | < 0.02 | > 100 |  |  |  |
| O=C(O)[C@@H]1[C@@H](Cc2ccncc2)C(=O)N1C(=O)N[C@@H](C1CCCCC1)C(F)(F)F [Example 135] |  | > 1.67 | G (“G” indicates 1-500) | 100 to 1000 | G (“G” indicates 1-500) |  |  |  |  | G (“G” indicates 1-500) |
| CCOC(=O)[C@@H]1[C@@H](Cc2ccnc(NC(=O)[C@H](C)N)c2)C(=O)N1C(=O)N[C@H](C)c1ccc2c(c1)OC(F)(F)O2 [Example 148] |  | < 1.67 | G (“G” indicates 1-500) | 100 to 1000 | G (“G” indicates 1-500) |  |  |  |  | G (“G” indicates 1-500) |
| O=C(O)[C@@H]1[C@@H](CCc2cccc(Cl)c2F)C(=O)N1C(=O)N[C@@H](C1CCCCC1)C(F)(F)F [Example 156] |  | > 1.67 | H (“H” indicates 500-1000) | 100 to 1000 | I (“I” indicates >1000) |  |  |  |  | I (“I” indicates >1000) |
| CCOC(=O)[C@@H]1C(CCc2cccc(Cl)c2)C(=O)N1C(=O)N[C@@H](C1CCCCC1)C(F)(F)F (some centres unmarked) [Example 158] | 0.5 to 1 |  |  | 100 to 1000 |  | > 0.1 | < 1 |  |  |  |
| CCCC(=O)Nc1ccc(OCC(O)CNC(C)C)c(C(C)=O)c1 (centres unmarked) [acebutolol, reference compound] |  |  |  |  |  |  |  | low |  |  |
| COCCc1ccc(OCC(O)CNC(C)C)cc1 (centres unmarked) [metoprolol, reference compound] |  |  |  |  |  |  |  |  | 200 (≈ 53.5 µg/mL) |  |
| C=C[C@H]1C[N@@]2CC[C@H]1C[C@@H]2[C@@H](O)c1ccnc2ccc(OC)cc12 [quinidine, reference compound] |  |  |  |  |  |  |  | medium |  |  |

Further lines, with some results ahead:

| half-life at 0.1 µM [1] [h] | half-life [2] [h] | FXIa Fold Selectivity FXa [3] | IC50 [4] [nM] | FXIa Fold Selectivity Thrombin [5] | fraction unbound at 4 h, 10 µM [6] | solubility at 4 h [8] [µM] | binding of reference compounds to human plasma proteins [6] | solubility at 24 h [8] [µM] | Compound | FXIa Fold Selectivity Trypsin [7] |
| --- | --- | --- | --- | --- | --- | --- | --- | --- | --- | --- |
| > 1 | > 1.67 | I (“I” indicates >1000) | < 10 | I (“I” indicates >1000) | > 0.1 | > 100 |  |  | C[C@@H](NC(=O)N1C(=O)[C@H](Cc2ccnc(N)c2)[C@H]1C(=O)O)C1CCCCC1 [Example 38] | H (“H” indicates 500-1000) |
| > 1 | > 1.67 | I (“I” indicates >1000) | < 10 | I (“I” indicates >1000) | > 0.1 | > 100 |  |  | Nc1cc(C[C@H]2C(=O)N(C(=O)N[C@@H](C3CCCCC3)C(F)(F)F)[C@@H]2C(=O)O)ccn1 [Example 88] | G (“G” indicates 1-500) |
| > 1 | > 1.67 | I (“I” indicates >1000) | < 10 | I (“I” indicates >1000) | 0.02 to 0.1 | > 100 |  |  | C[C@@H](NC(=O)N1C(=O)[C@H](Cc2ccnc(N)c2)[C@H]1C(=O)O)c1ccc2c(c1)OC(F)(F)O2 [Example 91] | G (“G” indicates 1-500) |
|  | < 1.67 | H (“H” indicates 500-1000) | 10 to 100 | I (“I” indicates >1000) |  | 1 to 10 (≈ 0.621 to 6.21 µg/mL) |  |  | CCOC(=O)[C@@H]1[C@@H](Cc2ccnc(NC(=O)OCOC(=O)C(C)C)c2)C(=O)N1C(=O)N[C@H](C)c1ccc2c(c1)OC(F)(F)O2 [Example 92] | I (“I” indicates >1000) |
|  | < 1.67 | H (“H” indicates 500-1000) | 10 to 100 | I (“I” indicates >1000) |  |  |  |  | CCOC(=O)[C@@H]1[C@@H](Cc2ccnc(NC(=O)OCOC(=O)C(C)C)c2)C(=O)N1C(=O)N[C@H](C)C1CCCCC1 [Example 137] | I (“I” indicates >1000) |
|  | < 1.67 | I (“I” indicates >1000) | 10 to 100 | I (“I” indicates >1000) |  |  |  |  | CCOC(=O)[C@@H]1[C@@H](Cc2ccnc(NC(=O)OCOC(=O)C(C)C)c2)C(=O)N1C(=O)N[C@@H](C1CCCCC1)C(F)(F)F [Example 140] | G (“G” indicates 1-500) |
|  | < 1.67 | H (“H” indicates 500-1000) | < 10 | I (“I” indicates >1000) |  |  |  |  | CCOC(=O)[C@@H]1[C@@H](Cc2ccnc(N)c2)C(=O)N1C(=O)N[C@@H](C)c1ccc2c(c1)OC(F)(F)O2 [Example 166] | G (“G” indicates 1-500) |
|  | > 1.67 | I (“I” indicates >1000) | < 10 | I (“I” indicates >1000) |  |  |  |  | C[C@@H](NC(=O)N1C(=O)[C@H](Cc2ccnc(N)c2)[C@H]1C(=O)O)c1ccc(OC(F)(F)F)cc1 [Example 168] | I (“I” indicates >1000) |
|  | < 1.67 | G (“G” indicates 1-500) | 10 to 100 | G (“G” indicates 1-500) |  |  |  |  | CCOC(=O)[C@@H]1[C@@H](Cc2ccncc2)C(=O)N1C(=O)N[C@H](C)c1ccc2c(c1)OC(F)(F)O2 [Example 170] | G (“G” indicates 1-500) |
